Reference: US7625875B2 (priority 2002, dated 2009)
Read-outs that look alike come from different tables or passages of the source. Marks after values point to notes of the source that are not given here. Starred links: 1 amine or outer side, 2 acyl side, 3 side chain; linkers in the order of their positions; H or OH if unused. Positions of bridges follow the written chain, without caps; N, C: chain ends. Non-standard residues stand in square brackets, D forms with d. Residues, ends and D or L forms follow the SMILES beside them. Chains are numbered I, II in the order given. Actinocin(9to1) = Cc1c2oc3c(C)ccc(C(=O)[*:1])c3nc-2c(C(=O)[*:2])c(N)c1=O; NMeV = CN[C@H](C(=O)O)C(C)C; Sar = CNCC(=O)O

How the values were obtained:
[1] = test system: S405T mutant BVDV; format: cell-based, bovine viral diarrhea virus; settings: more sensitive
[2] = test system: BVDV; format: cell-based, bovine viral diarrhea virus
[3] = test system: BVDV (strain I-N-dIns), noncytopathic; format: cell-based, bovine viral diarrhea virus; settings: titrated from 0 to 2,000 IU per ml
[4] = test system: BVDV New York-1 (NY-1) strain; assay: MDBK cells persistently infected with BVDV strain New York-1, virus titer; format: cell-based, bovine viral diarrhea virus; settings: 200 IU/ml alone
[5] = test system: HepG2 human hepatoma cell line; assay: Cytotoxicity (cell proliferation) assay, HepG2; settings: rapid cell division; listed as RBV
[6] = test system: HepG2 cells; assay: Incorporation of drug into cellular RNA and DNA
[7] = test system: HCV; settings: ribavirin alone; cited from earlier work
[8] = test system: BVDV; assay: Exploratory cell culture studies of mUrd, antiviral efficacy against BVDV; format: cell-based, bovine viral diarrhea virus; settings: less potent than mCyd
[9] = test system: DENV 2; assay: microbe, parasite or virus in culture; format: cell-based, dengue virus; settings: read-out: DENV 2
[10] = test system: wide spectrum of other viruses; assay: Exploratory cell culture studies of mUrd, other viruses; format: cell-based
[11] = test system: BVDV; format: cell-based, bovine viral diarrhea virus; remark: listed apart in the source
[12] = test system: Sb-1; assay: organism not typed; format: cell-based, Sabin type 1 poliomyelitis virus; settings: read-out: Sb-1
[13] = test system: REO-1; assay: microbe, parasite or virus in culture; format: cell-based, double-stranded RNA Reovirus; settings: read-out: REO
[14] = Exposure of chimpanzees to mCyd, serum HPLC; settings: after val-mCyd; lower limit of quantification 0.4 μM (100 ng/mL)
[15] = test system: CVB-2; assay: organism not typed; format: cell-based, Coxsackie B-2 virus; settings: read-out: CVB-2
[16] = test system: variety of cytotoxicity tests; assay: Exploratory cytotoxicity tests of mUrd (bone marrow, mitochondrial function, incorporation into nucleic acid); format: cell-based; settings: high concentrations
[17] = test system: WNV; assay: microbe, parasite or virus in culture; format: cell-based, West Nile virus; settings: read-out: WNV
[18] = test system: YFV; format: cell-based, yellow fever virus; settings: Tables 30b, 30k-30o
[19] = test system: MT-4 human T-lymphocyte cells
[20] = target: human DNA polymerase β (Homo sapiens, UniProt P06746); assay: Inhibition of human DNA polymerase β; format: biochemical
[21] = target: human DNA polymerase α (Homo sapiens, UniProt P09884); assay: Inhibition of human DNA polymerase α; format: biochemical
Sequence of human DNA polymerase α (P09884 whole entry): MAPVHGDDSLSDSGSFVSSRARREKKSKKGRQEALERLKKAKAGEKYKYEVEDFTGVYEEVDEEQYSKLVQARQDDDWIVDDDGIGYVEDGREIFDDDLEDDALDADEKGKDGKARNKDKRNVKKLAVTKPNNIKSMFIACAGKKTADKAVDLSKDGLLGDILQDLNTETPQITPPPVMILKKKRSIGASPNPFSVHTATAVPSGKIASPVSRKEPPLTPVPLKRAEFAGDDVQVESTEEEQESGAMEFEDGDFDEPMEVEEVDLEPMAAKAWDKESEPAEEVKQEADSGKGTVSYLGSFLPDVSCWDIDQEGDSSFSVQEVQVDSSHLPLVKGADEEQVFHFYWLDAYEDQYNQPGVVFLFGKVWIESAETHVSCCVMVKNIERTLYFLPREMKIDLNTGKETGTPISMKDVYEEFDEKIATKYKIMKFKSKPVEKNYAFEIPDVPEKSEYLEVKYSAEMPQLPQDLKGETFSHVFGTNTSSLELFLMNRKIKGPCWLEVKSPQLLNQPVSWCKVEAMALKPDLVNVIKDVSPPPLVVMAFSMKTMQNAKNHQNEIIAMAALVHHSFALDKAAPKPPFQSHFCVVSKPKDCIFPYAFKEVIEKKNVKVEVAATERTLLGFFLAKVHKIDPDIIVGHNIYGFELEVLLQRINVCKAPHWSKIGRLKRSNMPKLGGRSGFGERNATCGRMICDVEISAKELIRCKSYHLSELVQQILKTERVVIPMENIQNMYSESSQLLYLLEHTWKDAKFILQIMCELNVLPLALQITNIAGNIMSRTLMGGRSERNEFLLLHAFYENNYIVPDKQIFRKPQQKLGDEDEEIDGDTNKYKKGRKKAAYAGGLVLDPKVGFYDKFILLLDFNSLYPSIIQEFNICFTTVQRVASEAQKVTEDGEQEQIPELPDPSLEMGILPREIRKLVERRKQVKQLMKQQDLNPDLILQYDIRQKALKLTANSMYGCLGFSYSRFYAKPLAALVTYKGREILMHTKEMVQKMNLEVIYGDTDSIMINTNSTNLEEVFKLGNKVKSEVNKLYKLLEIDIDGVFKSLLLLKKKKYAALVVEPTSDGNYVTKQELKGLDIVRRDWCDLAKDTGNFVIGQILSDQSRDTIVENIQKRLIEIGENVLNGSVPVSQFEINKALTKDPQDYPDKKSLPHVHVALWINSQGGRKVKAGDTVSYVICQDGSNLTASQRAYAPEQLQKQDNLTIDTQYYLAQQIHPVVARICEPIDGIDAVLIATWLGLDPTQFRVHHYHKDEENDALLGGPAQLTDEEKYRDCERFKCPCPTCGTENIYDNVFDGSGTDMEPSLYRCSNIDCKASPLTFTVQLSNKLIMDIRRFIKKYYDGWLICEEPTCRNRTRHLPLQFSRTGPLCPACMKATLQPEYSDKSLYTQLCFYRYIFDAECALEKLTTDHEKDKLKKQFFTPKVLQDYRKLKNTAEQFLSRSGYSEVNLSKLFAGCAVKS

[22] = target: T1, human DNA polymerase γ (Homo sapiens, UniProt P54098); assay: biochemical
T1 sequence (P54098 1-1239): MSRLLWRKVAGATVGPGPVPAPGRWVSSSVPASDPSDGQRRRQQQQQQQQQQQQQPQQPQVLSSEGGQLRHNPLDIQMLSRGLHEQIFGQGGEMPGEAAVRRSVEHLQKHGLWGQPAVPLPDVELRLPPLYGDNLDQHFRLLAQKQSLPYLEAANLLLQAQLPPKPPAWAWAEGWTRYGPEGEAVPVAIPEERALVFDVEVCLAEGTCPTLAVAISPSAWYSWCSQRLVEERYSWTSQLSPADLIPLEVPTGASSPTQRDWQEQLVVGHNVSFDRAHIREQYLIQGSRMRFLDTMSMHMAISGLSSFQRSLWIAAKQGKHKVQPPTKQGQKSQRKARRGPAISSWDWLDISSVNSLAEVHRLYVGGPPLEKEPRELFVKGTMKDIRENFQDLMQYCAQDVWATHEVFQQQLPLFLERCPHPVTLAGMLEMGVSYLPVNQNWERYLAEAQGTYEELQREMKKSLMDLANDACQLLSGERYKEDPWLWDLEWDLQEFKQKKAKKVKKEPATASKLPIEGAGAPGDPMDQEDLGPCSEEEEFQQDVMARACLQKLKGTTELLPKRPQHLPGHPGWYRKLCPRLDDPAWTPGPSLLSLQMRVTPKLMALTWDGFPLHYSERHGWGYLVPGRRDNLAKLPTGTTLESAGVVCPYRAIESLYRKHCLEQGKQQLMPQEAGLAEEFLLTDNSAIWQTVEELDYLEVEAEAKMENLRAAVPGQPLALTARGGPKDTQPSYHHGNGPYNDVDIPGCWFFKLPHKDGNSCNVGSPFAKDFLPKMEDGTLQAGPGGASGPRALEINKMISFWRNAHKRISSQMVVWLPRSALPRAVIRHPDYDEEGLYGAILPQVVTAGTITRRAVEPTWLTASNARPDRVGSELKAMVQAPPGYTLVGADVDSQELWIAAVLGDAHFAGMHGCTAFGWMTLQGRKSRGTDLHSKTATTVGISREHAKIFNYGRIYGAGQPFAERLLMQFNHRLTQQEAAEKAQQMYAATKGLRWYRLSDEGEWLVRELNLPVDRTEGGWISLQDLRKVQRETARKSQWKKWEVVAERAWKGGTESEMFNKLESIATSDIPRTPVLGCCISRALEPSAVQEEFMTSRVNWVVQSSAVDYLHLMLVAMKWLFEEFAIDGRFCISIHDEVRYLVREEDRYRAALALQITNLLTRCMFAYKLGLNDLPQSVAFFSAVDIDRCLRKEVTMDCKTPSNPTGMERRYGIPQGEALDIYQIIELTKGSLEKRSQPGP

[23] = test system: HepG2 cells; settings: 10 μM; cell type not stated; cited from earlier work

Q: For interferon alpha 2b, which “sensitivity of the mutant relative to wild-type” value [1] is on record?
A: Its value is ~40 fold.

Q: And the EC50 [2]?
A: Its EC50 is 2.6 IU per ml.

Q: And the viral reduction ([2]; even at 1000 IU per ml)?
A: The viral reduction was ≤ 2 logs.

Q: And the “reduction in viral titer” value [3]?
A: Its value is 0.1 log.

Q: What about the “reduction in virus titer” value [4] of the same compound?
A: Its value is “approximately 0.1 log10”.

Q: What does the source list for `NC(=O)c1ncn([C@@H]2O[C@H](CO)[C@@H](O)[C@H]2O)n1` [ribavirin, 1-β-D-ribofuranosyl-1-1,2,4-triazole-3-carboxamide]?
A: CC50 [5]: 36 µM; Incorporated drug amount, DNA ([6]; 10 μM [3H] drug, 30 hours): 0.0120^b pmole/μg DNA; Incorporated drug amount, RNA ([6]; 10 μM [3H] drug, 30 hours): 0.0132^c pmole/μg RNA; incorporation into both DNA and RNA, level relative to mCyd ([6]; higher than mCyd): 10 fold; effect on serum levels of HCV-RNA [7]: does not lower serum levels of HCV-RNA; patients with serum amino transferase levels reduced to normal [7]: 40%

Q: With `C[C@@]1(O)[C@H](O)[C@@H](CO)O[C@H]1n1ccc(=O)[nH]c1=O` [Compound N, β-D-2′-C-methyl-uracil] as the compound, how does the “potency against BVDV relative to mCyd” value [8] read?
A: The value was “about 10 fold”.

Q: What about the EC50 [9] of the same compound?
A: The EC50 was ≥ 100 µM.

Q: And the “antiviral activity against a wide spectrum of other viruses” value [10]?
A: Its value is “essentially no antiviral activity”.

Q: What about the EC50 [11] of the same compound?
A: The EC50 was 18 µM.

Q: What about the EC50 [12] of the same compound?
A: The EC50 was 55 µM.

Q: And the EC50 [13]?
A: Its EC50 is > 100 µM.

Q: And the “mUrd in sera samples” value [14]?
A: The value was “No mUrd was detected”.

Q: And the EC50 [15]?
A: The EC50 was > 100 µM.

Q: And the “result in cytotoxicity tests” value [16]?
A: Its value is “negative”.

Q: And the EC50 [17]?
A: The EC50 was 80 µM.

Q: And the EC50 [18]?
A: The EC50 was 100 µM.

Q: And the CC50 [19]?
A: The CC50 was > 100 µM.

Q: With `Nc1ccn([C@H]2CC[C@@H](COP(=O)(O)OP(=O)(O)OP(=O)(O)O)O2)c(=O)n1` [ddC-TP] as the compound, how does the IC50 [20] read?
A: The IC50 was 4.8 ± 1 µM.

Q: And the IC50 [21]?
A: The IC50 was 78 ± 23.4 µM.

Q: And the IC50 [22]?
A: Its IC50 is 2.7 ± 1 µM.

Q: Which “increase in lactic acid production over control cells” value [23] does the source give for `O=c1[nH]c(=O)n([C@@H]2O[C@H](CO)[C@@H](O)[C@@H]2F)cc1I` [FIAU, 1,-2′-deoxy-2′-fluoro-1-β-D-arabinofuranosyl-5-iodo-uracil] here?
A: Its value is 100%.

Q: Which IC50 [20] does the source give for `Cc1c2oc3c(C)ccc(C(=O)N[C@@H]4C(=O)N[C@H](C(C)C)C(=O)N5CCC[C@H]5C(=O)N(C)CC(=O)N(C)[C@@H](C(C)C)C(=O)O[C@@H]4C)c3nc-2c(C(=O)N[C@@H]2C(=O)N[C@H](C(C)C)C(=O)N3CCC[C@H]3C(=O)N(C)CC(=O)N(C)[C@@H](C(C)C)C(=O)O[C@@H]2C)c(N)c1=O` [Act. D, actinomycin D] (I: T[dV]P[Sar][NMeV] / II: T[dV]P[Sar][NMeV]; ester I:1-I:C, II:1-II:C; linker I:N-II:N via Actinocin(9to1)) here?
A: The IC50 was 7.9 ± 3 µM.

Q: And the IC50 [21]?
A: The IC50 was 5.8 ± 3.1 µM.

Q: And the IC50 [22]?
A: The IC50 was 15.5 ± 4 µM.
